Where two headings read alike, the source gives them in different places.
Assays:
[1] = test system: human endometrial adenocarcinoma Ishikawa cells; assay: Estrogenic and anti-estrogenic activities in vitro: induction of alkaline phosphatase (APase) activity; assay type: cell-based; settings: for EC50: compound alone, four days, ND = not detected, read-out: Estrogenic activity EC50 (nM) ± S.E.M; for estrogenic effect in alkaline phosphatase activity in the Ishikawa cell model: in words
Experimental: The estrogenic and anti-estrogenic potentials of new compounds were evaluated using the induction of alkaline phosphatase (APase) activity, an estrogen specific response in human endometrial adenocarcinoma Ishikawa cells (Botella J., J Steroid Biochem Molec Biol, 1995, 55: 77-84; Littlefield et al., Endocrinology, 1990, 127: 2757-2762).
Ishikawa cells were routinely grown as monolayers in Dulbecco's Modified Eagle's medium (DMEM) containing 4 mM Glutamax I and supplemented with 10% of decomplemented fetal calf serum (dFCS) and antibiotics. They were maintained in a humidified atmosphere of 5% CO2 and 95% air, at 37±0.1° C. Stocks were performed once a week to maintain continuous exponential growth.
For studies, Ishikawa cells were plated into 96-well microplates. The next day, the medium was changed to a phenol red-free DMEM containing 5% dFCS stripped of endogenous estrogens by dextran coated charcoal treatment.
At the end of the incubation period, APase activity was assayed by a method involving the hydrolysis of p-nitrophenyl phosphate to p-nitrophenol at pH 9.8 and spectrophotometric determination of the product at 405 nm.
In brief, the microplates were first rinsed twice with cold phosphate buffered solution and then placed at −80° C. for at least 15 minutes. After thawing at room temperature for 5-10 minutes, the plates were put on ice and 50 μl ice-cold solution containing 5 mM p-nitrophenyl phosphate was added to each well. The plates were warmed to room temperature to allow for the development of the enzymatic reaction (t0). After a 15 to 60 minute incubation period, the intensity of the yellow color generated by the production of p-nitrophenol was measured into each well at 405 nm using a microplate reader (Wallac, model 1420 Victor^2). […] Sigmoidal dose-response curves were plotted and EC50 (estrogenic effect) and IC50 (anti-estrogenic effect) values were calculated for each compound.

[2] = target: T1, purified full-length recombinant human ERα (Homo sapiens, UniProt P03372); assay: Estrogen receptor α competitive radiometric binding assay ([3H]-E2); settings: for RBA (%) Mean ± S.E.M, ER α: ratio of IC50s of E2 and competitor, E2 set at 100%
T1 sequence (P03372 1-595): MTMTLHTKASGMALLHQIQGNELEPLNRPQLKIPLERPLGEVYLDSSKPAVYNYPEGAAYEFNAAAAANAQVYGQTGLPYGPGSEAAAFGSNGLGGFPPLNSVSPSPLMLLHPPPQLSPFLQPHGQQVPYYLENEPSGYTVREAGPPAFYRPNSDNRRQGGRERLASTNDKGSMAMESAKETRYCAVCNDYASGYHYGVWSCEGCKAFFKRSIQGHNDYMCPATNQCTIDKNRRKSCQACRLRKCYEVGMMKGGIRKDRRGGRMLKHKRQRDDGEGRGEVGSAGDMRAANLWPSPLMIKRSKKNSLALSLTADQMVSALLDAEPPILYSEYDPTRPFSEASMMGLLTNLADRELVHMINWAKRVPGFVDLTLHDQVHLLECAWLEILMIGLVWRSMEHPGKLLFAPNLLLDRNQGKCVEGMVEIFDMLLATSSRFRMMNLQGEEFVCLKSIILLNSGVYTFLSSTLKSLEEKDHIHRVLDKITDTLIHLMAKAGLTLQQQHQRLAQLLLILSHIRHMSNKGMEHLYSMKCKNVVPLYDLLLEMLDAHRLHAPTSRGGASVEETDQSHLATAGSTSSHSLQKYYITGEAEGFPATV
Experimental: (§1) Relative binding affinities (RBA) were determined by competitive radiometric binding assays, using purified full-length recombinant human ERα and ERβ (PanVera, Madison, Wis.). […] After shaking for a few seconds and centrifugation at 1500 g and 4° C. for 10 minutes, 150 μl/well of Optiphase ‘Super Mix’ scintillation liquid was mixed with 50 μl of supernatant of each sample and the radioactivity was measured in a MicroBeta counter (Wallac, Turku, Finland). Data were evaluated by a sigmoidal dose-response curve (Prism, GraphPad Software Inc.) to estimate the concentration of competitor at half-maximal specific binding (IC50). […] The selectivity for ERα and ERβ was obtained from the ratio R of the IC50 for ERα to the IC50 for ERβ for each test compound.

[3] = test system: human breast cancer cell line MCF-7; assay: Proliferative activity in vitro (ATP luminescence, 6 days); assay type: cell-based; settings: for EC50: MCF-7, six days, read-out: Cell proliferation EC50 (nM) ± S.E.M; for activity at 1 µM: read-out: Effect at 10^−6 M (% of control); for activity at 0.01 µM: read-out: Effect at 10^−8 M (% of control)
Experimental: The proliferative effect of the compounds of the invention was evaluated on human breast cancer cell line MCF-7 by measuring the number of viable cells after 6 days of treatment.
MCF-7 cells were routinely cultured as monolayers in Dulbecco's modified Eagle's medium (DMEM) containing 4 mM Glutamax and 4.5 g/l glucose and supplemented with 5% (v/v) decomplemented fetal calf serum (dFCS) and antibiotics.
Cells were plated at 2.10^6 cells/75 cm^2 flasks and incubated at 37° C. in a humidified atmosphere containing 5% CO2. They were passaged once weekly to maintain continuous exponential growth. Forty eight hours before the start of an experiment, near-confluent cells were changed to a phenol red free DMEM containing 5% steroid-stripped dFCS by dextran coated charcoal treatment (DCC-DMEM). On the day of the experiment, cells were harvested by brief exposure to trypsin and plated in DCC-DMEM in 96-well microplates at a density of 4.10^3 cells/well. The next day, the medium was renewed and test compounds, diluted appropriately in estrogen-free DMEM, were added and incubated for six days. […] At the end of the incubation period, cell proliferation was evaluated by quantitation of the cellular ATP content which signals the presence of metabolically active cells.
The assay, based on the ATP-dependent luciferase reaction, enables generation of a luminescent signal proportional to the amount of ATP present. As there is a linear relationship between the amount of ATP and the number of viable cells present in culture, the luminescent signal allowed to precisely evaluate cell proliferation (Crouch, S. P. M. et al. J. Immunol. Meth., 1993, 160, 81; Kangas, L. et al. Med. Biol. 1984, 62, 338; Petty, R. D. et al. J. Biolum. Chemilum. 1995, 10, 29).
In brief, the microplates were inverted to discard the culture medium and 100 μl of fresh medium was added into each well. The microplates were equilibrated at room temperature for approximately 30 minutes. 100 μl of luciferase reagent was added into each well and contents were mixed for 2 minutes to induce cell lysis. The plates were incubated at room temperature for 10 minutes to stabilize luminescence signal.
Luminescence was recorded using a microplate reader (Wallac, model 1420 Victor^2) and results were expressed as percentage of the control luminescence. Sigmoidal dose-response curves were plotted and EC50 values were calculated for each compound in order to evaluate their proliferative potency.

Prepubescent female rats = assay: Estrogenic / uterotrophic activity in vivo (uterus wet weight); design: species or system rat; settings: Table 4, orally 3 mg/rat/day for 3 days; for change in vivo at 3 mg: Rattus norvegicus, po, 72 h, read-out: % stimulation vs vehicle (uterus weight)
Experimental: Prepubescent female rats were orally treated at 3 mg/rat/day for 3 days. On the day following the last treatment, uteri were removed and wet weights were recorded.
The results are expressed as % of stimulation of uterus weight in comparison with vehicles. […]
Prepubescent female rats were orally treated with 0.3; 1; 3 or 10 mg/rat/day for 3 days. On the day following the last treatment, uteri were removed and wet weights were recorded.

[4] = target: purified full-length recombinant human ERβ (Homo sapiens, UniProt Q92731); assay: Estrogen receptor β competitive radiometric binding assay ([3H]-E2); settings: for selectivity for the human recombinant estrogen receptor β: in words; for RBA (%) Mean ± S.E.M, ER β: ratio of IC50s of E2 and competitor, E2 set at 100%; for R (IC50s) αβ: ratio of the IC50 for ERα to the IC50 for ERβ
Experimental: as §1

[5] = Homo sapiens, MCF7, 144 h, MCF-7, 10^−6 M, six days
[6] = Homo sapiens, MCF7, 144 h, MCF-7, 10^−8 M, six days

Chain of purified full-length recombinant human ERβ (Q92731 whole entry): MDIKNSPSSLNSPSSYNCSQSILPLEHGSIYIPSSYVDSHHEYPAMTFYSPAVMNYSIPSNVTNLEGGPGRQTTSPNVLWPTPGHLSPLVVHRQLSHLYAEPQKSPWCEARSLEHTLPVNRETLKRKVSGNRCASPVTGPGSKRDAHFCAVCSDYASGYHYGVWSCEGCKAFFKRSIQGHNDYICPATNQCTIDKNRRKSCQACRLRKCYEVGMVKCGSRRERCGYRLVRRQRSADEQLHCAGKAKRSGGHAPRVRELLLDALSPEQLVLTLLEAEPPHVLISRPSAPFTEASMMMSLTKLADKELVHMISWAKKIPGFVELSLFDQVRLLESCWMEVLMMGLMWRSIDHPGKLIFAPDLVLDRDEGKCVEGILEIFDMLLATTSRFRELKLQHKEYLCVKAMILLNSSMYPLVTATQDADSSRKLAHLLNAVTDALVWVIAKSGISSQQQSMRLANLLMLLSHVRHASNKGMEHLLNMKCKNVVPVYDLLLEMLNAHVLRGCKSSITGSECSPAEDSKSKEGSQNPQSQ

## Cl.Oc1ccc2c(C3CCCC3)nn(CCN3CCCCC3)c2c1
other
  melting point: 120 °C

## Cl.Oc1ccc2c(C3CCCCCC3)n[nH]c2c1
other
  melting point: 95 °C

## COc1ccc(C2=COc3cc(O)cc4[nH]nc2c34)cc1.Cl
other
  melting point: 255 °C

## Cl.Oc1ccc(C2=COc3cc(O)cc4[nH]nc2c34)cc1
other
  melting point: 111 °C

## 1-(aminosulfonyl)-3-cyclohexyl-1H-indazol-6-yl-sulfamate [Ex 35]
[1]
  EC50: 374 ± 43 nM
  estrogenic effect in alkaline phosphatase activity in the Ishikawa cell model: weak estrogenic effect
[2]
  RBA (%) Mean ± S.E.M, ER α: 0.1 ± 0.02%
[2]; read-out: IC50 (nM) Mean ± S.E.M, ER α, 2 nM [3H]-E2, 4° C., 18-20 hours
  IC50: 2690 ± 593 nM
[3]; MCF-7, 10^−6 M, six days
  Effect at 10^−6 M (% of control): 162.6 % of control
[3]; MCF-7, 10^−8 M, six days
  Effect at 10^−8 M (% of control): 94.4 % of control
[3]
  EC50: 58.2 ± 15 nM
Prepubescent female rats
  % stimulation vs vehicle (uterus weight): 38%
[4]
  selectivity for the human recombinant estrogen receptor β: marked selectivity
  RBA (%) Mean ± S.E.M, ER β: 0.9 ± 0.1%
  R (IC50s) αβ: 10.8
[4]; read-out: IC50 (nM) Mean ± S.E.M, ER β, 2 nM [3H]-E2, 4° C., 18-20 hours
  IC50: 248 ± 48.7 nM

## N#CC(Cc1ccc(O)cc1)c1ccc(O)cc1 (stereo not shown) [DPN, 2,3-bis-(4-hydroxyphenyl)propionitrile, reference compound]
Prepubescent female rats
  change in vivo at 3 mg: 358%

## Cl.Oc1ccc2c(C34CC5CC(CC(C5)C3)C4)n[nH]c2c1 [Ex 31, 3-(1-adamantyl)-1H-indazol-6-ol, hydrochloride]
[1]; Homo sapiens, Ishikawa, 96 h
  EC50: 30.8 ± 0.5 nM
[1]
  estrogenic effect in alkaline phosphatase activity in the Ishikawa cell model: weak estrogenic effect
[2]
  IC50: 119 ± 45.2 nM
  RBA (%) Mean ± S.E.M, ER α: 3.1 ± 0.8%
[3]; [5]
  activity at 1 µM: 146%
[3]; [6]
  activity at 0.01 µM: 139%
[3]; Homo sapiens, MCF7, 144 h
  EC50: 3.7 ± 0.7 nM
Prepubescent female rats
  change in vivo at 3 mg: 468%
[4]
  IC50: 36.2 ± 18.7 nM
  selectivity for the human recombinant estrogen receptor β: marked selectivity
  RBA (%) Mean ± S.E.M, ER β: 17.7 ± 5.1%
  R (IC50s) αβ: 3.3

## N#CC(Cc1ccc(O)c(F)c1)c1noc2cc(O)ccc12 (stereo not shown) [Ex 81, 2-(6-hydroxy-1,2-benzisoxazol-3-yl)-3-(3-fluoro-4-hydroxyphenyl)-propanenitrile]
[2]
  IC50: 139 ± 33.9 nM
  RBA (%) Mean ± S.E.M, ER α: 2.4 ± 0.7%
other
  melting point: 201 °C
[3]; [5]
  activity at 1 µM: 117%
[3]; [6]
  activity at 0.01 µM: 86.8%
[3]; Homo sapiens, MCF7, 144 h
  EC50: 635 ± 285 nM
Prepubescent female rats
  change in vivo at 3 mg: 49%
[4]
  IC50: 14.4 ± 5.3 nM
  RBA (%) Mean ± S.E.M, ER β: 35.9 ± 14.0%
  R (IC50s) αβ: 9.7

## Cn1nc(C2CCCCC2)c2ccc(O)cc21 [Example 25, 3-cyclohexyl-1-methyl-1H-indazol-6-ol]
other
  melting point: 205 °C

## Oc1ccc(-n2nc(C3CCCC3)c3ccc(O)cc32)cc1 [Example 26, 3-cyclopentyl-1-(4-hydroxyphenyl)-1H-indazol-6-ol]
other
  melting point: 178 °C

## Oc1ccc2c(C3CCCC3)nn(Cc3ccc(Br)cc3)c2c1 [Example 28, 1-(4-bromobenzyl)-3-cyclopentyl-1H-indazol-6-ol]
other
  melting point: 147 °C

## Oc1ccc2c(C3CCCCC3)nn(Cc3ccccc3)c2c1 [Example 29, 1-benzyl-3-cyclohexyl-1H-indazol-6-ol]
other
  melting point: 154 °C

## Cn1nc(C2CCCCC2)c2ccc(S(N)(=O)=O)cc21 [Example 36, 3-cyclohexyl-1-methyl-1H-indazole-6-sulfonamide]
other
  melting point: 188 °C

## NS(=O)(=O)n1nc(C2CCCCCC2)c2ccc(O)cc21 [Example 39, 3-cycloheptyl-6-hydroxy-1H-indazole-1-sulfonamide]
other
  melting point: 155 °C

## c1ccc(COc2ccc3c(C4CCCCCC4)noc3c2)cc1 [Example 63, 6-benzyloxy-3-cycloheptyl-1,2-benzisoxazole]
other
  melting point: 80 °C

## Oc1ccc2c(C34CC5CC(CC(C5)C3)C4)noc2c1 [Example 64, 3-(1-adamantyl)-1,2-benzisoxazol-6-ol]
other
  melting point: 215 °C

## NS(=O)(=O)Oc1ccc2c(C34CC5CC(CC(C5)C3)C4)noc2c1 [Example 74, 3-(1-adamantyl)-1,2-benzisoxazol-6-yl sulfamate]
other
  melting point: 87 °C

## NS(=O)(=O)Oc1ccc2c(C3CCCCCC3)noc2c1 [Example 75, 3-cycloheptyl-1,2-benzisoxazol-6-yl sulfamate]
other
  melting point: 82 °C

## NS(=O)(=O)Oc1ccc2c(C3CCCCC3)noc2c1 [Example 76, 3-cyclohexyl-1,2-benzisoxazol-6-yl sulfamate]
other
  melting point: 145 °C

## COc1ccc2c(C(C#N)Cc3ccc(O)cc3C)noc2c1 (stereo not shown) [Example 82, 2-(6-methoxy-1,2-benzisoxazol-3-yl)-3-(4-hydroxy-2-methylphenyl)-propanenitrile]
other
  melting point: 131 °C

## Oc1ccc2c(C3CCCC3)nsc2c1 [Example 94, 3-cyclopentyl-1,2-benzisothiazol-6-ol]
other
  melting point: 130 °C

## NS(=O)(=O)Oc1ccc2c(C3CCCC3)nsc2c1 [Example 96, 3-cyclopentyl-1,2-benzisothiazol-6-yl sulfamate]
other
  melting point: 132 °C

## CCCc1c(-c2ccc(O)cc2)nn(-c2ccc(O)cc2)c1-c1ccc(O)cc1 [PPT, 1,3,5-tris-(4-hydroxyphenyl)-4-propyl-1H-pyrazole, reference compound]
Prepubescent female rats
  change in vivo at 3 mg: 96%

## CC/C(=C(\c1ccccc1)c1ccc(OCCN(C)C)cc1)c1ccccc1 [TAM, tamoxifen, reference compound]
Prepubescent female rats
  change in vivo at 3 mg: 206%

From patent publication US7977364B2, “Indazoles, benzisoxazoles and benzisothiazoles and their use as estrogenic agents” (Laboratoire Thermamex, priority 2004, dated 2011)
